Experimental data as given in patent US8629163B2, “Tetrakis-quaternary ammonium salts and methods for modulating neuronal nicotinic acteylcholine receptors” (University of Kentucky Research Foundation, priority 2007, dated 2014).

How the values were obtained:
[1] = target: T1, α4β2 neuronal nicotinic acetylcholine receptors (Rattus norvegicus, UniProt P09483+P12390); test: Inhibition of [^3H]nicotine (NIC) binding to rat brain membranes; settings: % inhibition at 100 nM analog; 3 nM [^3H]NIC; nonspecific 10 μM cytisine; 3-4 independent experiments
T1 construct: The brain tissue was homogenized with a Tekmar Polytron; from tissue; host or cells: rat brain membranes (whole brain without cortex and cerebellum)
Protocol: (§1) Rat brain was dissected into the whole brain tissue without cortex and cerebellum and was frozen in liquid nitrogen and stored at −70° C. until use. The brain tissue was homogenized with a Tekmar Polytron (setting 40) in 20 volumes of ice-cold hypotonic buffer (2 mM HEPES, 14.4 mM NaCl, 0.15 mM KCl, 0.2 mM CaCl2 and […], pH=7.5). The homogenate was centrifuged at 25,000×g for 17 minutes at 4° C. The pellet was resuspended in 20 volumes of the same buffer, and incubated for 10 min at 37° C. The resuspension was cooled to 4° C. and then centrifuged at the above parameters. The pellet was resuspended by sonicaton and centrifuged using the same conditions. The final pellet was stored at −20° C. under 10 ml of the incubation buffer and was suspended just before incubation with radioligand.
(§2) The binding of [^3H]NIC and [^3H]MLA to probe α4β2 and α7-type neuronal nicotinic acetylcholine receptors, respectively, was determined using [^3H]NIC (67 Ci/mmol) and [^3H]MLA (60 Ci/mmol), purchased from Perkin Elmer Life Sciences, Boston, Mass., U.S.A. and American Radiolabel Chemicals, Inc., St. Louis, Mo., U.S.A. Binding was performed in duplicate, in a final volume of 250 μl of the incubation medium, containing 20 mM HEPES, 144 mM NaCl, 1.5 mM KCl, 2 mM CaCl2, and 1 mM MgSO4, pH=7.5. Reaction was initiated by the addition of 100 μL of membrane suspension to the samples containing a desired concentration of test compounds and 3 nM [^3H]NIC or 3 nM [^3H]MLA (final concentrations) and incubated for 60 min at room temperature. Total binding was measured in the absence of unlabelled ligand and nonspecific binding was determined in the presence of 10 μM cytisine, for [^3H]NIC binding, and 10 μM nicotine for [^3H]MLA. The binding reaction was terminated by dilution of samples with 3 mL of ice-cold incubation buffer followed by immediate filtration through Unifilter-96 GFB-filter plates presoaked in 0.5% polyethylenimine using a Filtermate Harvester (Perkin Elmer, Shelton, Conn., U.S.A.). Filters were rinsed five times with 350 μL of ice-cold buffer, and then filter plates were dried at 48° C. for 60 min, bottom sealed and each well filled with 40 μL of Packard Microscint-20 cocktail. After 60 min of gentle shaking, the filter plates were top sealed and radioactivity measured using a Packard TopCount NXT scintillation counter. CPMs were processed through a Packard Windows NT operating system. Protein was measured using the Bradford dye-binding procedure with bovine serum albumin as the standard.
(§3) The ability of a probe concentration of 100 nM of the tetrakis-quaternary ammonium salts to inhibit specific binding was evaluated.
(§4) ^aData are % inhibition at 100 nM concentration of analog for 3-4 independent experiments. Specific binding in the [^3H]NIC binding assay is calculated as the difference between the total binding of 3 nM [^3H]NIC and nonspecific binding in the presence of 10 μM cytisine. Specific binding for the [^3H]MLA binding assay is calculated as the difference between the total binding of 3 nM [^3H]MLA to the receptors alone and its nonspecific binding in the presence of 10 μM nicotine. Analog-induced inhibition of nicotine-evoked [^3H]DA release is calculated as a percent of that in the absence of analog.

rat striatal slices = test: Nicotine-evoked [^3H]dopamine release (overflow) from superfused rat striatal slices; assay type: cell-based; settings: for inhibition at 0.1 µM: % inhibition at 100 nM analog, 10 μM S(-)nicotine, rat striatal slices, read-out: Inhibition of Nicotine-evoked [^3H]DA release; for IC50: Rattus norvegicus, full concentration response assay, 4-5 independent experiments in duplicate, 10 μM nicotine, read-out: IC50, inhibition of nicotine-evoked [^3H]DA release (converted)
Protocol: Rat striatal slices (500 μm thickness, 6 mg wet weight) were incubated for 30 minutes in Krebs buffer (118 mM NaCl, 4.7 mM KCl, 1.2 mM MgCl2, 1.0 mM NaH2PO4, 1.3 mM CaCl2, 11.1 mM glucose, 25 mM NaHCO3, 0.11 mM L-ascorbic acid, and 0.004 mM disodium EDTA; pH 7.4, and saturated with 95% O2/5% CO2) in a metabolic shaker at 34° C. Slices were rinsed with 15 mL of fresh buffer and incubated for an additional 30 minutes in fresh buffer containing 0.1 μM [^3H]dopamine (DA; 6 slices/3 mL). Subsequently, slices were rinsed with 15 mL of fresh buffer and each slice transferred to a superfusion chamber. Slices were superfused (0.6 mL/min) for 60 minutes with Krebs buffer containing nomifensine (10 μM) and pargyline (10 μM) and maintained at 34° C., pH 7.4, with continual aeration (95% O2/5% CO2). Two 4-minute samples (2.4 mL each) were collected to determine basal outflow of [^3H]DA. Slices were superfused for 36 min following addition of the analogs to the superfusion buffer after the collection of the second sample and nine 4-minute samples were collected. For initial probe assays, the concentration of analog was 100 nM. For concentration-response studies, the concentration of analog varied from 1 nM to 10 μM, and the effect of each concentration was determined using striatal slices obtained from an individual animal (repeated measures design). Subsequently, S(−)nicotine (10 μM) was added to the buffer and nine additional 4-minute samples were collected. At the end of the experiment, each slice was solubilized and the [^3H] content of the tissue determined.
Radioactivity in the superfusate and tissue samples was determined by liquid scintillation spectroscopy. Fractional release for tritium collected in each sample was divided by the total tritium present in the tissue at the time of sample collection and was expressed as a percentage of total tritium. Basal [^3H]outflow was calculated from the average of the tritium collected in the two […] samples just before addition of the analog. The sum of the increase in collected tritium resulting from either exposure to the test compound or exposure to S(−)nicotine in the absence and presence of the test compound equaled total [^3H]overflow. [^3H]Overflow was calculated by subtracting the [^3H]outflow during an equivalent period of prestimulation from the values in samples collected during and after drug exposure. Inasmuch as the radiolabelled compounds were not separated and identified, the tritium collected in superfusate is referred to as either [^3H]outflow or [^3H]overflow, rather than as [^3H]DA. [^3H]Overflow primarily represents [^3H]DA in the presence of nomifensine and pargyline in the superfusion buffer. […]
Analogs were also evaluated for their ability to inhibit NIC evoked [^3H]DA release. Antagonist activity was evaluated by comparing the NIC-evoked [^3H]overflow in the absence and presence of the analogs (see Table 1). […] Data are expressed as M±SEM. Control represents absence of compound. N=4/analog, *p<0.05
as §4
^bIC50 from full concentration response assay; data from 4-5 independent experiments, each performed in duplicate.

[2] = target: T2, α7-type neuronal nicotinic acetylcholine receptors (Rattus norvegicus, UniProt Q05941); test: Inhibition of [^3H]methyllycaconitine (MLA) binding to rat brain membranes; settings: % inhibition at 100 nM analog; 3 nM [^3H]MLA; nonspecific 10 μM nicotine; 3-4 independent experiments
T2 construct: The brain tissue was homogenized with a Tekmar Polytron; from tissue; host or cells: rat brain membranes (whole brain without cortex and cerebellum)
Protocol: as §1, §2, §3, §4

T1 sequence (P09483 31-630): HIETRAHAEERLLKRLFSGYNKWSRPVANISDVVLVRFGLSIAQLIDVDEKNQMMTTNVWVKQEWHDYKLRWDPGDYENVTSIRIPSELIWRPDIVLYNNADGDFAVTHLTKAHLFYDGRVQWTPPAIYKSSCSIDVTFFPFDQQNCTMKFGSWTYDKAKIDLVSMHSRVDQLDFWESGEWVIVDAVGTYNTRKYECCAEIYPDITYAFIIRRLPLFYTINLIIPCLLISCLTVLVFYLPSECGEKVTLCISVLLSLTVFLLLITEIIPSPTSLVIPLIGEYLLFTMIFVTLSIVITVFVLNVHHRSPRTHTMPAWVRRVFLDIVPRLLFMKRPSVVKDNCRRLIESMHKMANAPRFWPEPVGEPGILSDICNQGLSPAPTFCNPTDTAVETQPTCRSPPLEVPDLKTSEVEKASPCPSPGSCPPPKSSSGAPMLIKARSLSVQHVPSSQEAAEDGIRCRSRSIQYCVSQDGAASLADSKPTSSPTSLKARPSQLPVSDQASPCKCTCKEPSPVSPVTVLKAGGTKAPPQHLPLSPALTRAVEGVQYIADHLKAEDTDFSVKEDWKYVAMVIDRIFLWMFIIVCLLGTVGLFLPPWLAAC
T1 sequence (P12390 25-500): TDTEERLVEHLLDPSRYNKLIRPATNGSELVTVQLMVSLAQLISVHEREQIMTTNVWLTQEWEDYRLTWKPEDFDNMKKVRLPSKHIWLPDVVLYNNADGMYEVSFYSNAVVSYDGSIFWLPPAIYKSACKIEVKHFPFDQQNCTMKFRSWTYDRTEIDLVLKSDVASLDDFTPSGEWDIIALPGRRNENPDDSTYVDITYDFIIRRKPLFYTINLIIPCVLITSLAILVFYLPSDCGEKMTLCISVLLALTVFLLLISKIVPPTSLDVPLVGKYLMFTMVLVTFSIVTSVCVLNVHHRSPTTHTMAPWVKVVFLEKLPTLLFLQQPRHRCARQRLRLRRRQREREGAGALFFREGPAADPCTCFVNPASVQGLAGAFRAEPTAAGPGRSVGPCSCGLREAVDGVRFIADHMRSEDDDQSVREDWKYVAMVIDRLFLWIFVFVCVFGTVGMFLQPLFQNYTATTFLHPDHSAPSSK
T2 sequence (Q05941 23-502): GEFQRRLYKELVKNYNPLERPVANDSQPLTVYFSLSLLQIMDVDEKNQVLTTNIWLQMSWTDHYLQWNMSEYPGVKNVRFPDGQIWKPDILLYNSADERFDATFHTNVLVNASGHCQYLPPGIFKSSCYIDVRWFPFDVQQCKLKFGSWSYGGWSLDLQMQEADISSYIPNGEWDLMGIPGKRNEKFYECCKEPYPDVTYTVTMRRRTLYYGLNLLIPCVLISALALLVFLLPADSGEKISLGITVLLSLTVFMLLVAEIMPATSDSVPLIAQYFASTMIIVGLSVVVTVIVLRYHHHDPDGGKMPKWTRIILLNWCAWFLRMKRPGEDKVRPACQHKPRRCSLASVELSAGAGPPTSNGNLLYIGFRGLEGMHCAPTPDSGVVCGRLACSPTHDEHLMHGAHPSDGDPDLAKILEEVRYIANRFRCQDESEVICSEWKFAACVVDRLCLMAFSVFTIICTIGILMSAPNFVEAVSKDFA

Structure (SMILES)	Inhibition of [^3H]Nicotine binding [1] [%]	inhibition at 0.1 µM (rat striatal slices) [%]	Inhibition of [^3H]MLA binding [2] [%]	IC50 (rat striatal slices) [nM]
Cc1cc[n+](CCCCCc2cc(CCCCC[n+]3ccc(C)cc3)c(CCCCC[n+]3ccc(C)cc3)cc2CCCCC[n+]2ccc(C)cc2)cc1.[Br-].[Br-].[Br-].[Br-]	12 ± 8.3	46 ± 5	8.0 ± 5.3	–
C(#Cc1cc(C#CCCC[n+]2cccc(Cc3ccccc3)c2)c(C#CCCC[n+]2cccc(Cc3ccccc3)c2)cc1C#CCCC[n+]1cccc(Cc2ccccc2)c1)CCC[n+]1cccc(Cc2ccccc2)c1.[Br-].[Br-].[Br-].[Br-]	2.9 ± 2.9	17 ± 17	53 ± 3.5	–
Cc1cc(C)c[n+](CCCC#Cc2cc(C#CCCC[n+]3cc(C)cc(C)c3)c(C#CCCC[n+]3cc(C)cc(C)c3)cc2C#CCCC[n+]2cc(C)cc(C)c2)c1.[Br-].[Br-].[Br-].[Br-]	0 ± 05	12 ± 5	3.9 ± 3.9	–
CN1CCCC1c1ccc[n+](CCCCCc2cc(CCCCC[n+]3cccc(C4CCCN4C)c3)c(CCCCC[n+]3cccc(C4CCCN4C)c3)cc2CCCCC[n+]2cccc(C3CCCN3C)c2)c1.[Br-].[Br-].[Br-].[Br-] (centres unmarked)	7.4 ± 4.7	43 ± 21	26 ± 14	–
C(#Cc1cc(C#CCCC[n+]2cccc(-c3ccccc3)c2)c(C#CCCC[n+]2cccc(-c3ccccc3)c2)cc1C#CCCC[n+]1cccc(-c2ccccc2)c1)CCC[n+]1cccc(-c2ccccc2)c1.[Br-].[Br-].[Br-].[Br-]	0.3 ± 0.3	37 ± 15	53 ± 0.8	–
Cc1ccc[n+](CCCCCc2cc(CCCCC[n+]3cccc(C)c3)c(CCCCC[n+]3cccc(C)c3)cc2CCCCC[n+]2cccc(C)c2)c1.[Br-].[Br-].[Br-].[Br-]	12 ± 4.4	8 ± 4	12 ± 6.9	–
Cc1cc[n+](CCCC#Cc2cc(C#CCCC[n+]3ccc(C)cc3)c(C#CCCC[n+]3ccc(C)cc3)cc2C#CCCC[n+]2ccc(C)cc2)cc1.[Br-].[Br-].[Br-].[Br-]	24 ± 5.5	35 ± 14	3.0 ± 3.0	–
CN1CCCC1c1ccc[n+](CCCC#Cc2cc(C#CCCC[n+]3cccc(C4CCCN4C)c3)c(C#CCCC[n+]3cccc(C4CCCN4C)c3)cc2C#CCCC[n+]2cccc(C3CCCN3C)c2)c1.[Br-].[Br-].[Br-].[Br-] (centres unmarked)	38 ± 7.4	31 ± 13	15 ± 2.0	–
[Br-].[Br-].[Br-].[Br-].c1ccc(-c2ccc[n+](CCCCCc3cc(CCCCC[n+]4cccc(-c5ccccc5)c4)c(CCCCC[n+]4cccc(-c5ccccc5)c4)cc3CCCCC[n+]3cccc(-c4ccccc4)c3)c2)cc1	6.6 ± 4.5	19 ± 15	33 ± 17	–
Cc1cc(C)c[n+](CCCCCc2cc(CCCCC[n+]3cc(C)cc(C)c3)c(CCCCC[n+]3cc(C)cc(C)c3)cc2CCCCC[n+]2cc(C)cc(C)c2)c1.[Br-].[Br-].[Br-].[Br-]	3.7 ± 3.7	45 ± 14	15 ± 8	–
OCCCc1ccc[n+](CCCCCc2cc(CCCCC[n+]3cccc(CCCO)c3)c(CCCCC[n+]3cccc(CCCO)c3)cc2CCCCC[n+]2cccc(CCCO)c2)c1.[Br-].[Br-].[Br-].[Br-]	9.6 ± 5.2	64 ± 15	20 ± 13	3.38
C(#Cc1cc(C#CCCC[n+]2ccc3c(c2)CCCC3)c(C#CCCC[n+]2ccc3c(c2)CCCC3)cc1C#CCCC[n+]1ccc2c(c1)CCCC2)CCC[n+]1ccc2c(c1)CCCC2.[Br-].[Br-].[Br-].[Br-]	9.7 ± 9.7	24 ± 14	17 ± 8.9	–
OCCCc1ccc[n+](CCCC#Cc2cc(C#CCCC[n+]3cccc(CCCO)c3)c(C#CCCC[n+]3cccc(CCCO)c3)cc2C#CCCC[n+]2cccc(CCCO)c2)c1.[Br-].[Br-].[Br-].[Br-]	0 ± 0	41 ± 15	5.7 ± 5.7	–
C(#Cc1cc(C#CCCC[n+]2ccc3ccccc3c2)c(C#CCCC[n+]2ccc3ccccc3c2)cc1C#CCCC[n+]1ccc2ccccc2c1)CCC[n+]1ccc2ccccc2c1.[Br-].[Br-].[Br-].[Br-]	0 ± 0	39 ± 17	4.9 ± 3.8	–
Cc1ccc[n+](CCCC#Cc2cc(C#CCCC[n+]3cccc(C)c3)c(C#CCCC[n+]3cccc(C)c3)cc2C#CCCC[n+]2cccc(C)c2)c1.[Br-].[Br-].[Br-].[Br-]	11 ± 11	16 ± 13	18 ± 7.8	–
Cc1cc[n+](CCCCCc2cc(CCCCC[n+]3ccc(C)c(C)c3)c(CCCCC[n+]3ccc(C)c(C)c3)cc2CCCCC[n+]2ccc(C)c(C)c2)cc1C.[Br-].[Br-].[Br-].[Br-]	0.5 ± 0.5	36 ± 11	18 ± 10	–
[Br-].[Br-].[Br-].[Br-].c1ccc(Cc2ccc[n+](CCCCCc3cc(CCCCC[n+]4cccc(Cc5ccccc5)c4)c(CCCCC[n+]4cccc(Cc5ccccc5)c4)cc3CCCCC[n+]3cccc(Cc4ccccc4)c3)c2)cc1	13 ± 3.3	54 ± 10	16 ± 8	28
